From US20220323406A1, “METHODS AND COMPOSITIONS FOR DIFFERENTIATING STEM CELLS” (Massachusetts Institute of Technology, priority 2019, published 2022)

Key:
[1] = system: Paneth, goblet and cycling cells of small intestine; assay: KPT-330 treatment in vivo (Example 1), histology of proximal and distal small intestine; design: cycling cell number, distal small intestine: dose or concentration left out as unconfirmed
[2] = system: 3D-cultured intestinal organoids (ENR or ENR+CD); assay: Lysozyme secretion assay (3D culture), normalized to ATP; assay type: cell-based, mouse
Procedure: Lysozyme assay (3D culture). ISC-enriched organoids cultured in 3D Matrigel with ENRCV media were passaged to 48-well plate in 3D Matrigel with ENRCV. At day zero, media were replaced to ENR or ENRCD with or without indicated compounds, and media were replaced every other day. At day six, cells were washed twice with basal media and treated with carbamylcholine chloride (Sigma, C4382) for 3 hours. Media were collected and lysozyme activity was measured by EnzChek Lysozyme Assay Kit (ThermoFisher, E22013).
Lysozyme secretion assay. ISC-enriched organoids in 3D Matrigel culture were passaged to a 48- or 96-well plate and cultured with ENR or ENR+CD media containing DMSO or each drug for 6 days. DMSO- or drug-containing media were changed every other day. On day 6, cells were washed with basal media twice and treated with basal media with or without 10 μM carbamoylcholine chloride for 3 h in a CO2 incubator at 37° C. A part of the conditioned media was collected and used for lysozyme assay (Thermo, E-22013) following the manufacturer's instruction. The fluorescence was measured using excitation/emission of 485/530 nm. CellTiter-Glo 3D Reagent (Promega, G9681) was added afterward, and the cell culture plate was incubated on an orbital shaker at RT for 30 min to induce cell lysis and to stabilize the luminescent signal. The solution was replaced to a 96-well white microplate, and luminescent signals were measured by a microplate reader (infinite M200, Tecan). The standard curve was prepared by diluting recombinant ATP (Promega, P1132). For both assays, a polynomial cubic curve was fitted to a set of standard data, and each sample value was calculated on the Microsoft Excel.

[3] = system: ENR+CD organoids (ISC to Paneth cell differentiation); assay: Secondary (validation) screen: LYZ.NS basal lysozyme secretion, 2.5-D 384-well ENR+CD organoids; assay type: cell-based, mouse; settings: for Dose.FC.LYZ.NS: 6-day ENR+CD, vs ENR+CD+DMSO
[4] = system: lysozyme (LYZ) in intestinal organoids; assay: Western blotting of lysozyme in 3D-cultured intestinal organoids; assay type: cell-based, mouse; settings: ENR+CV, ENR+CD or ENR, 6 days
Excerpt: Western blotting. ISC-enriched organoids cultured in 3D Matrigel with ENRCV media were passaged to 24-well plate in 3D Matrigel with ENRCV. At day zero, media were replaced to ENR or ENRCD with or without indicated compounds, and media were replaced every other day. At day six, cells were harvested from Matrigel by mechanical disruption and suspended in basal media. Cell pellets were lysed with Pierce® IP lysis buffer (ThermoFisher, 87787) containing Halt™ Protease Inhibitor Cocktail, EDTA-Free (ThermoFisher, 87785) after 3-minute centrifuge at 300×g at 4° C. Cell extracts were resolved by NuPAGE® SDS-PAGE Gel system (ThermoFisher) and electroblotted onto polyvinylidene difluoride membranes using Criterion™ Blotter (Biorad). The membranes were blocked with 2% Blotting-Grade Blocker (Biorad, 1706404) in TBS-T (50 mM Tris-HCl, 150 mM NaCl, and 0.1% Tween 20, pH 8.0) and then probed with appropriate antibodies. Detection was performed using ECL Select™ Western Blotting Detection Reagent (Amersham, 45-000-999) and ImageQuant LAS4000 (GE Healthcare).
Western blotting. Organoid-containing gel was homogenized in basal medium and centrifuged at 300 rcf for 3 min. Organoid pellet was lysed with ice-cold Pierce IP Lysis Buffer (Thermo Fisher Scientific, #87787) containing Halt Protease Inhibitor Cocktail, EDTA-Free (Thermo Fisher Scientific, #87785) and incubated on ice for 20 min. The lysate was centrifuged at 17,000 rcf for 10 min, and the supernatant was combined with NuPAGE LDS Sample Buffer (Thermo Fisher Scientific, NP0007). Protein concentration was determined by Pierce 660 nm Protein Assay (Thermo Fisher Scientific, #22660) and normalized to the lowest concentration among each sample set. […] Chemiluminescent signals were detected by LAS4000 (GE Healthcare) using Amersham ECL Select Western Blotting Detection Reagent (GE Healthcare, #45-000-999), and total protein signals were obtained by Odyssey Imaging System (LI-COR Biosciences) using REVERT Total Protein Stain Kit (LI-COR Biosciences, #926-11010).

[5] = system: ENR+CD organoids (ISC to Paneth cell differentiation); assay: Primary screen: CCh-stimulated lysozyme secretion LYZ.S, 2.5-D 384-well ENR+CD organoid differentiation; assay type: cell-based, mouse; settings: primary screen
Excerpt: High-throughput screening.

## O=C(/C=C\n1cnc(-c2cc(C(F)(F)F)cc(C(F)(F)F)c2)n1)NNc1cnccn1 [KPT-330]
[1]; high dose
  Paneth cell number, distal small intestine: decreased Paneth cells
[1]; low dose
  cycling cell number, distal small intestine: significant increase in cycling cell number
[1]; oral gavage, 1 week
  Paneth cell number, proximal small intestine: no significant shift in Paneth cell number
  effect by histology: pro-differentiation effect
  goblet cell numbers, proximal/distal small intestine: no significant shift in goblet cell numbers
[2]; 2-day treatment within 6-day ENR+CD differentiation, read at day 6
  enrichment, treatment day 4-6 (by LYZ secretion assay): minorly enriched
[2]; 6 days ENR+CD, basal and Cch-stimulated
  most effective dose among tested concentrations (LYZ secretion): 160 nM
[2]; ENR media, 3-D, 6 days
  Paneth cell-specific activity (lysozyme assay) in conventional ENR culture: enhancing Paneth cell-specific activity
[2]; up to 160 nM, 6 days ENR+CD
  Paneth cell activity (LYZ secretion, basal and Cch-stimulated), dose dependence: enhanced Paneth cell activity in a dose-dependent manner
[3]; 0.02 uM
  Dose.FC.LYZ.NS: −0.005 log2 fold change
[3]; 0.04 uM
  Dose.FC.LYZ.NS: −0.040 log2 fold change
[3]; 0.08 uM
  Dose.FC.LYZ.NS: 0.142 log2 fold change
[3]; LYZ.NS and LYZ.S
  validated doses in secondary screen (SSMD above cutoff in both LYZ assays): multiple validated doses
[3]; […]
  Dose.FC.LYZ.NS: 0.244 log2 fold change
[3]; validated dose-treatments, mean fold change vs ENR+CD+DMSO
  increase in basal LYZ secretion (LYZ.NS) relative to ENR+CD control: 50-75%
[4]
  LYZ abundance per-mass protein (Western blot): appreciably increase LYZ abundance
[5]; dose 0.08 uM
  Dose.FC.LYZ.S (log2 fold change): 0.259
[5]; dose 0.40 uM
  Dose.FC.LYZ.S (log2 fold change): −0.282
[5]; dose 2.00 uM
  Dose.FC.LYZ.S (log2 fold change): −0.390
[5]; dose 10.00 uM
  Dose.FC.LYZ.S (log2 fold change): −0.423
